22 compounds from patent publication US20200308165A1, “Compounds as Ras Inhibitors and Use Thereof” (D.E. Shaw Research, LLC, priority 2017, published 2020) can be followed below.

SMILES strings stand for the structures.

In one experiment the target is T1, KRAS4B (wild type) (Homo sapiens, UniProt P01116).
T1 construct: purchased Cytoskeleton CS-RS03 (K-Ras4B); CS-SOS1-A (SOS1)
As to the kind of experiment: K-Ras Nucleotide Exchange Assay-384 (SOS Exchange Assay by Cytoskeleton, GTPx_Cyt_IC50). The experiment is classed as biochemical. The conditions noted are these: 1 μM KRAS4B, 0.05 μM SOS1, 1.5 μM mant-GDP. As to the method: Example 16. Evaluation of Biological Activities: K-Ras Nucleotide Exchange Assay-384 (SOS Exchange Assay by Cytoskeleton (GTPx_Cyt_IC50))
This assay is used to evaluate inhibitors of K-ras, by monitoring the inhibition of nucleotide exchange over time, in the presence of the protein SOS.
384-well black, untreated plates (Corning 3820 with NBS or 3821 untreated) were used. K-Ras4B Protein was used, which is wild-type (Cytoskeleton #CS-RS03) with a concnetration of 5 mg/ml, or 200 μM. Human SOS1 Protein, Exchange Domain 564-1049 (Cytoskeleton # CS-SOS1-A) was used in a concentration of 3.03 mg/ml or 50 μM. Mant-GDP triethylammonium salt solution was purchased from Sigma (catalog No. 69244). 1M stock solution of Hepes was purchased from Sigma (catalog No. H9897). 1M stock solution of MgCl2 was purchased from Sigma (catalog No. M4880). CHAPS, 3% was purchased from Sigma (catalog No. C5070). Nonidet P40 was purchased from Sigma. KOH pellets were purchased from Sigma.
K-ras buffer containing 40 mM Hepes, 10 mM MgCl2, 0.05% CHAPS, 0.01% NP40 with a pH 7.5 was prepared as follows: to a Buffer base containing 4 ml 1M Hepes, 1 ml MgCl2,
93.3 ml d-H2O, pH 7.5 (with KOH pellets), 1.7 ml 3% CHAPS was added, followed by the addition of 1 ml 1% NP40.
Final Conditions of the method included 1 μM KRAS4B (wild type), 0.05 μM SOS1, 1.5 μM mant-GDP. Reagent Preparation included: thawing aliquots of KRAS, SOS, and mant-GDP; preparing 3x KRAS (3 uM) in assay buffer; preparing 3x SOS/mant-GDP (150 nM/4.5 uM) in assay buffer; and preparing 3x compounds in assay buffer.
Assay Procedure (1536) used 3.3 μl, 3x Kras, 3.3 μl 3x compound with preincubate 0 hour, and […] 3x SOS/mant-GDP. A kinetic read measuring fluorescence at 360_450 was performed for 30 min at 30 second intervals.
Reference compound SCH 54292 (reversible inhibitor) at about 100 μM was used with no preincubation. Reagents were only stable for 45 min on ice, and therefore were prepared fresh before each assay. Partial plates (up to 9 columns) were run at a time to minimize effects due to the amount of time it takes to read a whole plate. SOS/mant-GDP were added with an automated pipettor to initiate all reactions at the same time. Assay was typically performed at 0.5% solution in DMSO (compounds prepared in 1.5% DMSO initially).
Clariostar Settings were as follows. Test Name was Kras Kinetic 360-450. Basic settings of the test included Measurement type as Fluorescence (FI), and Microplate name as Corning 3820. Plate mode settings included 61 cycles, 30 second cycle time, and 10 flashes per well. Optic settings were as follows. Excitation wavelength was 360 nm. Emission wavelength was 450 nM. Excitation bandwidth was 12 nm. Emission bandwidth was 12 nm. Dichroic filter 405 was used. D6 Well(s) was used for gain adjustment. No shaking was used. General settings were as follows. Top optic was used. Settling time was 0.1 second. Reading direction was bidirectional, horizontal left to right, and bottom to top. The target temperature was 25° C.

The target in a further experiment is Ras protein (Homo sapiens, UniProt P01116). As to the kind of experiment: GDPx_Icagen_IC50: SOS1-mediated guanine nucleotide exchange rate of Ras (mant-GDP). The experiment is classed as biochemical. The conditions noted are these: SOS1-initiated exchange.
Source text: (§1) In some embodiments, the IC50 assay measures the reduction effect of a given compound on the guanine nucleotide-echange rate of Ras protein in the presence of guanine nucleotide exchange protein SOS1, which is a Ras activator. In the assay GDP-loaded Ras was first prepared in a buffer containing the compound at certain concentration and fluorescent guanine nucleotide (mant-GDP (used in Icagene assay) or mant-GTP (used in other IC50 assays). The guanine nucleotide exchange was initiated by the addition of the SOS1 and its rate was reflected in the rate of fluorescence change as a function of time, which was monitored by a reader. The experiment was repeated at different compound concentrations and the IC50 of the compound was defined as the compound concentration at which half of its maximal reduction effect on the guanine nucleotide exchange rate is achieved. In other embodiments, other Ras activator proteins may be used. Non-limiting examples of other Ras activator proteins include RasGRP (Ras guanyl-releasing protein).
Example 17. Evaluation of Biological Activities: GDPx_Icagen_ICso
as §1, with “The IC50” for “In some embodiments, the IC50”, “guanine nucleotide-exchange” for “guanine nucleotide-echange”, “Ras is” for “Ras was”, “nucleotide (mant-GDP).” for “nucleotide (mant-GDP (used in Icagene assay) or mant-GTP (used in other IC50 assays).”, “achieved.” for “achieved. In other embodiments, other Ras activator proteins may be used. Non-limiting examples of other Ras activator proteins include RasGRP (Ras guanyl-releasing protein).”

Sequence of Ras protein (P01116 1-188 isoform P01116-2): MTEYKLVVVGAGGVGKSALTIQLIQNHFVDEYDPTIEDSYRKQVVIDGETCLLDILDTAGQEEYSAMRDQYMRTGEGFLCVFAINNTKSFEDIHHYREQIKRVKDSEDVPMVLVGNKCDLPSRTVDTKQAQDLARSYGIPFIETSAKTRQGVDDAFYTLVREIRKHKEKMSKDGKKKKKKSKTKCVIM
T1 sequence (P01116 1-188 isoform P01116-2): as above

As for `Cn1c(-n2[nH]c(CSc3ccccc3)cc2=O)nc2ccccc21` [Compound 170, 2-(1-methyl-1H-benzo[d]imidazol-2-yl)-5-((phenylthio)methyl)-1,2-dihydro-3H-pyrazol-3-one], the IC50 against KRAS4B (wild type) worked out at 6.1 µM; at Ras protein it was 11900 nM.
Taken in the same sequence, the figures for `O=c1cc(CSc2ccncc2)[nH]n1-c1nc2ccccc2[nH]1` [Compound 168, 2-(1H-benzo[d]imidazol-2-yl)-5-((pyridin-4-ylthio)methyl)-1,2-dihydro-3H-pyrazol-3-one] were 7 µM and 2300 nM.
On to `O=c1cc(CSCc2ccc(F)cc2)[nH]n1-c1nc2ccccc2[nH]1` [Compound 148, 2-(1H-benzo[d]imidazol-2-yl)-5-(((4-fluorobenzyl)thio)methyl)-1,2-dihydro-3H-pyrazol-3-one], for which the IC50 came to 0.55 µM on KRAS4B (wild type) and 300 nM against Ras protein.
On to `O=c1cc(CSc2ccccc2)[nH]n1-c1nc2ccccc2[nH]1` [Compound 144, 2-(1H-benzo[d]imidazol-2-yl)-5-((phenylthio)methyl)-1,2-dihydro-3H-pyrazol-3-one], for which the IC50 was determined as 0.42 µM on KRAS4B (wild type) and 300 nM on Ras protein.
For `Cc1cc(C)nc(SCc2cc(=O)n(-c3nc4ccccc4s3)[nH]2)n1` [Compound 184, 2-(benzo[d]thiazol-2-yl)-5-(((4,6-dimethylpyrimidin-2-yl)thio)methyl)-1,2-dihydro-3H-pyrazol-3-one], in that order: 13.6 µM and 5800 nM.
For `NC(=O)c1cccc(SCc2cc(=O)n(-c3nc4ccccc4[nH]3)[nH]2)c1` [Compound 159, 3-(((1-(1H-benzo[d]imidazol-2-yl)-5-oxo-2,5-dihydro-1H-pyrazol-3-yl)methyl)thio)benzamide], in that order: 1 µM and 500 nM.
As for `Cc1nnc(SCc2cc(=O)n(-c3nc4ccccc4s3)[nH]2)s1` [Compound 187, 2-(benzo[d]thiazol-2-yl)-5-(((5-methyl-1,3,4-thiadiazol-2-yl)thio)methyl)-1,2-dihydro-3H-pyrazol-3-one], the IC50 turned out to be 500 µM against KRAS4B (wild type) and 21000 nM against Ras protein.
As to `O=c1cc(CSc2ccccn2)[nH]n1-c1nc2ccccc2[nH]1` [Compound 142, 2-(1H-benzo[d]imidazol-2-yl)-5-((pyridin-2-ylthio)methyl)-1H-pyrazol-3(2H)-one], the results for the IC50 against KRAS4B (wild type) and on Ras protein were 1.2 µM and 170 nM, respectively.
For the compound `Cc1cc(C)nc(CSCc2cc(=O)n(-c3nc4ccccc4[nH]3)[nH]2)n1` [Compound 164, 2-(1H-benzo[d]imidazol-2-yl)-5-((((4,6-dimethylpyrimidin-2-yl)methyl)thio)methyl)-1,2-dihydro-3H-pyrazol-3-one], the results for the IC50 at KRAS4B (wild type) and against Ras protein were 0.63 µM and 22000 nM, respectively.
With `O=c1cc(CSc2nccc(C(F)(F)F)n2)[nH]n1-c1nc2ccccc2[nH]1` [Compound 149, 2-(1H-benzo[d]imidazol-2-yl)-5-(((4-(trifluoromethyl)pyrimidin-2-yl)thio)methyl)-1,2-dihydro-3H-pyrazol-3-one], the IC50 came out at 0.41 µM on KRAS4B (wild type) and 300 nM at Ras protein.
Take `Cc1cc(C)nc(SCc2cc(=O)n(-c3ccccn3)[nH]2)n1` [Compound 143, 5-(((4,6-dimethylpyrimidin-2-yl)thio)methyl)-2-(pyridin-2-yl)-1,2-dihydro-3H-pyrazol-3-one]: the results for the IC50 at KRAS4B (wild type) and against Ras protein were 5.4 µM and 2100 nM, respectively.
Regarding `O=c1cc(COc2ccccc2)[nH]n1-c1nc2ccccc2[nH]1` [Compound145, 2-(1H-benzo[d]imidazol-2-yl)-5-(phenoxymethyl)-1,2-dihydro-3H-pyrazol-3-one], the figures for the half-maximal inhibitory concentration (IC50) against KRAS4B (wild type) and against Ras protein were 3.9 µM and 800 nM, respectively.
For `Cc1csc(SCc2cc(=O)n(-c3nc4ccccc4[nH]3)[nH]2)n1` [Compound 152, 2-(1H-benzo[d]imidazol-2-yl)-5-(((4-methylthiazol-2-yl)thio)methyl)-1,2-dihydro-3H-pyrazol-3-one], in that order: 0.61 µM and 600 nM.
As to `CN1CCN(Cc2ccc(SCc3cc(=O)n(-c4nc5ccccc5[nH]4)[nH]3)cc2)CC1` [Compound 163, 2-(1H-benzo[d]imidazol-2-yl)-5-(((4-((4-methylpiperazin-1-yl)methyl)phenyl)thio)methyl)-1,2-dihydro-3H-pyrazol-3-one], the values for the IC50 on KRAS4B (wild type) and at Ras protein were 1 µM and 500 nM, respectively.
Taken in the same sequence, the figures for `O=c1cc(CSc2ccc(Cl)cc2)[nH]n1-c1nc2ccccc2[nH]1` [Compound 183, 2-(1H-benzo[d]imidazol-2-yl)-5-(((4-chlorophenyl)thio)methyl)-1,2-dihydro-3H-pyrazol-3-one] were 300 µM and 200 nM.
For `O=c1cc(CSc2ccc(Br)cn2)[nH]n1-c1nc2ccccc2[nH]1` [Compound 158, 2-(1H-benzo[d]imidazol-2-yl)-5-(((5-bromopyridin-2-yl)thio)methyl)-1,2-dihydro-3H-pyrazol-3-one], in that order: 0.53 µM and 200 nM.
As for `Cc1ccc(SCc2cc(=O)n(-c3nc4ccccc4[nH]3)[nH]2)cc1` [Compound 186, 2-(1H-benzo[d]imidazol-2-yl)-5-((p-tolylthio)methyl)-1,2-dihydro-3H-pyrazol-3-one], the figures for the IC50 against KRAS4B (wild type) and at Ras protein were 500 µM and 1300 nM, respectively.
Taken in the same sequence, the figures for `Cc1cccc(-n2[nH]c(CSc3ccccc3)cc2=O)n1` [Compound 169, 2-(6-methylpyridin-2-yl)-5-((phenylthio)methyl)-1,2-dihydro-3H-pyrazol-3-one] were 2.6 µM and 7000 nM.
For `Cc1c(CSc2ccccc2)[nH]n(-c2nc3ccccc3[nH]2)c1=O` [Compound 141, 2-(1H-benzo[d]imidazol-2-yl)-4-methyl-5-((phenylthio)methyl)-1H-pyrazol-3(2H)-one], in that order: 100 µM and 770 nM.
For `O=c1cc(CSc2ccccc2)[nH]n1-c1cnccn1` [Compound 166, 5-((phenylthio)methyl)-2-(pyrazin-2-yl)-1,2-dihydro-3H-pyrazol-3-one], in that order: 331 µM and 48800 nM.
As for `Cc1cc(C)nc(SCc2cc(=O)n(-c3ccccn3)n2C)n1` [Compound 165, 5-(((4,6-dimethylpyrimidin-2-yl)thio)methyl)-1-methyl-2-(pyridin-2-yl)-1,2-dihydro-3H-pyrazol-3-one], the IC50 was 300 µM against KRAS4B (wild type) and 200000 nM against Ras protein.
For `Cc1cc(C)nc(SCc2cc(=O)n(-c3nc4ccccc4[nH]3)[nH]2)n1` [Compound 146, 2-(1H-benzo[d]imidazol-2-yl)-5-(((4,6-dimethylpyrimidin-2-yl)thio)methyl)-1,2-dihydro-3H-pyrazol-3-one], in that order: 2.6 µM and 1800 nM.

One may read the IC50 as the concentration that inhibits the measured activity by half. Higher therefore signals weaker potency in that assay.
